Measured values published in patent publication US10844069B2, “Pyrrolotriazine compounds as TAM inhibitors” (Incyte Corporation, priority 2016, dated 2020).

Tests used:
Axl = Axl (Homo sapiens (Human), UniProt P30530); test: TAM Enzymatic Assay (HTRF), phosphor-Axl; type: biochemical
Experimental: Autophosphorylation of Axl was carried out by incubating the recombinant Axl protein (Life Technologies, PV4275) in buffer containing 50 mM Tris, pH7.5, 0.2 mg/ml Axl, 5 mM ATP, 20 mM MgCl2 and 2 mM DTT at room temperature for 1 hour.
(§1) The kinase assay buffer contained 50 mM HEPES, pH7.5, 10 mM MgCl2, 1 mM EGTA, 0.01% NP-40 and 2 mM DTT. 0.1 ul test compounds dissolved in DMSO were transferred from compound plates to white 384-well assay plates (Greiner […] plates). […] 4 ul enzyme solution (or assay buffer for the enzyme blank) was added to the appropriate wells in each plate, and then 4 ul/well substrate solution was added to initiate the reaction. The plate was protected from light and incubated at room temperature for 60 min. […] The plate was incubated for 1 h at room temperature, and HTRF (homogenous time resolved fluorescence) signal was measured on a PHERAstar FS plate reader (BMG labtech). Percentage of inhibition was calculated for each concentration and IC50 value was generated from curve fitting with GraphPad Prism software.

Tyro3 = Tyro3 (Homo sapiens (Human), UniProt Q06418); test: TAM Enzymatic Assay (HTRF), Tyro3; type: biochemical
Chain of Tyro3 (Q06418 41-890): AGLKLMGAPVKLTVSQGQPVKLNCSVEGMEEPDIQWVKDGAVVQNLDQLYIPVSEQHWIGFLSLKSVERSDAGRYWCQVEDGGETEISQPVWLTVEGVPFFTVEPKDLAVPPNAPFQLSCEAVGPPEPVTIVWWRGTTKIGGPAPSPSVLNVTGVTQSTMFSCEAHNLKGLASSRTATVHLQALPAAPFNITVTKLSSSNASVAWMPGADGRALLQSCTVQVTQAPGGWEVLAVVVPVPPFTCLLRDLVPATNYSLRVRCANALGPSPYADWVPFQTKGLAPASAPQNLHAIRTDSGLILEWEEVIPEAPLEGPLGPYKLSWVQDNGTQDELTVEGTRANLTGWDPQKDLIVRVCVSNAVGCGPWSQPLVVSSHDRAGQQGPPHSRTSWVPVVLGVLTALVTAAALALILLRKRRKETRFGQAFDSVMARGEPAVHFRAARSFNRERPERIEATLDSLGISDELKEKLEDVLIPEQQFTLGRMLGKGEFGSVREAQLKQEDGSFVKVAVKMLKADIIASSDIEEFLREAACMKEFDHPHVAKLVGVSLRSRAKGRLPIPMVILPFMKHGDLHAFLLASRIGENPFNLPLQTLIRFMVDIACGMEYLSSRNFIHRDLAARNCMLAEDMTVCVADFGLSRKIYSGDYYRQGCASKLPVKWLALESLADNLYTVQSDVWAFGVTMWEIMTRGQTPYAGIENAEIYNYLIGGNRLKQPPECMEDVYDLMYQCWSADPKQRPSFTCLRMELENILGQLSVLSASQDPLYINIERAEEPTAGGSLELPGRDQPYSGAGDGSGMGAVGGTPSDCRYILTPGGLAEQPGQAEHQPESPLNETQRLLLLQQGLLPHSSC
Experimental: as §1

Chain of Axl (P30530 26-894): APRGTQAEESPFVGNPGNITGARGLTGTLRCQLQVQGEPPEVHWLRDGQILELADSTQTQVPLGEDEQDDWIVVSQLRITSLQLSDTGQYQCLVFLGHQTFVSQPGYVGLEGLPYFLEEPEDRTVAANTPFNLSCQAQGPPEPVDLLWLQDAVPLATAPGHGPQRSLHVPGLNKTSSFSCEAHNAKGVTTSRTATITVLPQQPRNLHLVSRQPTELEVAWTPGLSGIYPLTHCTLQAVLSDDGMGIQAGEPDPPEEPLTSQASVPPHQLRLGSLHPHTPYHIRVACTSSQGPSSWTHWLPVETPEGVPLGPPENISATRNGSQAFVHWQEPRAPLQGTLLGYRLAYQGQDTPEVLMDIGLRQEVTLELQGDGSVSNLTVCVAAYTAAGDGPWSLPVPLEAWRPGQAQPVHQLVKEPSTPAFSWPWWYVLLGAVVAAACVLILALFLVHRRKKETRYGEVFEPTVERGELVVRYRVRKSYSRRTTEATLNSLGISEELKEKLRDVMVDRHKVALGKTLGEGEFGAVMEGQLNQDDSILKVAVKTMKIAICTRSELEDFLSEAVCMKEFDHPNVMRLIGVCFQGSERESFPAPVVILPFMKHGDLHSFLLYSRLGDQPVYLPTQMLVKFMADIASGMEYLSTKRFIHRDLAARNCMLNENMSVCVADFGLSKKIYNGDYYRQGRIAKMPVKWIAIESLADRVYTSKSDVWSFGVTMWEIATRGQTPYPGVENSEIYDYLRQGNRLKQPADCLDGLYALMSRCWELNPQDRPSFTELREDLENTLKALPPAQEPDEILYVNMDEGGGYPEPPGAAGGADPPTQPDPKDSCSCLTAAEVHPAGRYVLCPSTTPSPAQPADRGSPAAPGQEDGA

Cc1cn(C)nc1-n1c(=O)c(C(=O)Nc2ccc(-c3cc(C4CCN(C(=O)C(C)C)CC4)n4ncnc(N)c34)cc2)cn(C(C)C)c1=O [Example 138, N-(4-(4-Amino-7-(1-isobutyrylpiperidin-4-yl)pyrrolo[2,1-f][1,2,4]triazin-5-yl)phenyl)-3-(1,4-dimethyl-1H-pyrazol-3-yl)-1-isopropyl-2,4-dioxo-1,2,3,4-tetrahydropyrimidine-5-carboxamide]
IC50 (Axl): < 5 nM
IC50 (Tyro3): > 100 nM
